Molecules are shown by their SMILES. Bounds are passed on as bounds.

Here are results for 28 compounds from ChEMBL document CHEMBL1143554, “4-phenoxypiperidines: potent, conformationally restricted, non-imidazole histamine H3 antagonists” (J Med Chem, 2005).

For assay [1], the target named is T1, Histamine H3 receptor (Homo sapiens, UniProt Q9Y5N1). Description: Mean functional activity against human H3 receptor. The note with it: read-out: pA2 (converted).
Assay [2] concerns the target T1, Histamine H3 receptor. Description: Mean binding affinity for human H3 receptor.

T1 sequence (Q9Y5N1 whole entry): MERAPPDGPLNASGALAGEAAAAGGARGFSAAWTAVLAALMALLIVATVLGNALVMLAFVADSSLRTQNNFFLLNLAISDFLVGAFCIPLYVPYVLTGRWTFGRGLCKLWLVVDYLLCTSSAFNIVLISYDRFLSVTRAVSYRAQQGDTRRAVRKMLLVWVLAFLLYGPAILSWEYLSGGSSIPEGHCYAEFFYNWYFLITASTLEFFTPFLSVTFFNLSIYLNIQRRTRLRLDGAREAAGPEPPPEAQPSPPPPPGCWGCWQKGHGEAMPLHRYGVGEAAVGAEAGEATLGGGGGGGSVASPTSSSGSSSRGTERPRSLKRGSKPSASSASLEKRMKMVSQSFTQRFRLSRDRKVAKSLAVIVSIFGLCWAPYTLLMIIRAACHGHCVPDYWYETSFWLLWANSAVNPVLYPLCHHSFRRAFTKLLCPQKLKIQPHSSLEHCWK

Broadly, the Ki is a dissociation constant, usually derived from enzyme kinetics or from competition with a known ligand. Low values mean tighter binding, high ones weaker binding. On to `CC(C)N1CCC(Oc2ccc(CNC3CC3)cc2)CC1`, for which the Kb at Histamine H3 receptor [1] was 0.457 nM. In addition, the Ki on Histamine H3 receptor [2] is 1.62 nM.

As for `N#Cc1ccc(OCCCCCN2CCCC2)cc1`, affinity on Histamine H3 receptor [2] was put at a Ki of 19.1 nM.

Regarding `CCN(CC)Cc1ccc(OC2CCN(C(C)C)CC2)cc1`, the Kb at Histamine H3 receptor [1] is 0.468 nM. The same compound had a Ki at Histamine H3 receptor [2] of 1.23 nM.

As to `CCCCN(C)Cc1ccc(OC2CCN(C(C)C)CC2)cc1`, at Histamine H3 receptor [1], the Kb is 0.339 nM. For the same compound, the inhibition constant Ki at Histamine H3 receptor [2] was 1.48 nM.

Regarding `CC(C)N1CCC(Oc2ccc(CN3CCCCCC3)cc2)CC1`, the Kb at Histamine H3 receptor [1] is 0.174 nM. The compound further had a Ki on Histamine H3 receptor [2] of 1.7 nM.

In the case of `CC(C)N1CCC(Oc2ccc(CN(C)CCN(C)C)cc2)CC1`, at Histamine H3 receptor [1], the Kb was 0.214 nM. This compound gave a Ki at Histamine H3 receptor [2] of 1.15 nM.

The compound `CCC(CC)N1CCN(C(=O)CCC(=O)c2ccc(Cl)cc2)CC1` showed an inhibitory constant (Ki) at Histamine H3 receptor [2] of 0.871 nM.

In the case of `CC(C)N1CCC(Oc2ccc(CN3CCCN(C)CC3)cc2)CC1`, the Kb on Histamine H3 receptor [1] was 0.324 nM. The Ki on Histamine H3 receptor [2] is 1 nM.

On Histamine H3 receptor [2], `C[C@@H]1CCCN1CCc1cc2cc(C#N)ccc2o1` showed a Ki of 0.447 nM.

As to `CC(C)N1CCC(Oc2ccc(CN3CCN(Cc4ccccc4)CC3)cc2)CC1`, the Kb on Histamine H3 receptor [1] was 0.661 nM. Further, the affinity on Histamine H3 receptor [2] corresponds to a Ki of 2 nM.

For the compound `CC(C)N1CCC(Oc2ccc(CN(C)C)cc2)CC1`, on Histamine H3 receptor [1], the Kb was 1.17 nM. The inhibition constant Ki at Histamine H3 receptor [2] is 3.02 nM.

Take `CC(C)N1CCC(Oc2ccc(CNc3ccccc3)cc2)CC1`: at Histamine H3 receptor [1], the Kb is 2.69 nM. The compound further showed an inhibition constant (Ki) at Histamine H3 receptor [2] of 5.5 nM.

Turning to `CC(C)N1CCC(Oc2ccc(CN3CCCCC3)cc2)CC1`, the Kb at Histamine H3 receptor [1] is 0.126 nM. The affinity at Histamine H3 receptor [2] corresponds to a Ki of 0.631 nM.

Regarding `CC(C)N1CCC(Oc2ccc(CN3CCC(CO)CC3)cc2)CC1`, the Kb on Histamine H3 receptor [1] is 0.257 nM. For the same compound, on Histamine H3 receptor [2], the Ki was 1 nM.

In turn, `CCN1CCC(Oc2ccc(C#N)cc2)CC1` had a Ki on Histamine H3 receptor [2] of 81.3 nM.

In the case of `Cc1ccc2nc(-c3ccc(OCCCN4CCCCC4)cc3)cn2c1`, the Kb on Histamine H3 receptor [1] is 2.04 nM.

`CC(C)N1CCC(Oc2ccc(CNc3ccccn3)cc2)CC1`: the Kb on Histamine H3 receptor [1] was 0.741 nM. At Histamine H3 receptor [2], this compound showed a Ki of 2.24 nM.

Consider `CC(C)N1CCC(Oc2ccc(CN3CCC(O)CC3)cc2)CC1`, for which the Kb on Histamine H3 receptor [1] was 0.331 nM. For the same compound, on Histamine H3 receptor [2], affinity was put at a Ki of 1.41 nM.

`CC(C)N1CCC(Oc2ccc(CN3CCCC3)cc2)CC1`: the Kb at Histamine H3 receptor [1] is 0.355 nM. This compound gave a Ki on Histamine H3 receptor [2] of 1.95 nM.

Take `CCC(C)N1CCC(Oc2ccc(C#N)cc2)CC1` (stereo not given): on Histamine H3 receptor [2], the Ki is 15.1 nM.

Regarding `N#Cc1ccc(OC2CCNCC2)cc1`, at Histamine H3 receptor [2], the Ki was more than 10000 nM.

As to `CC(CO)N1CCC(Oc2ccc(C#N)cc2)CC1` (stereo not given), at Histamine H3 receptor [2], the inhibition constant Ki was 759 nM.

`CC(C)N1CCC(Oc2ccc(CN3CCC(Cc4ccccc4)CC3)cc2)CC1`: at Histamine H3 receptor [1], the Kb was 0.813 nM. This compound gave a Ki at Histamine H3 receptor [2] of 1.45 nM.

`N#Cc1ccc(OC2CCN(C3CCCCC3)CC2)cc1` had a Ki on Histamine H3 receptor [2] of 32.4 nM.

Take `CC(C)N1CCC(Oc2ccc(CN3CCN(C)CC3)cc2)CC1`: the Kb at Histamine H3 receptor [1] is 0.257 nM. Further, the Ki on Histamine H3 receptor [2] is 0.741 nM.

As to `CC(C)N1CCC(Oc2ccc(CN3CCN(c4ccccc4)CC3)cc2)CC1`, the Kb on Histamine H3 receptor [1] is 1.02 nM. Also, at Histamine H3 receptor [2], the inhibition constant Ki was 2 nM.

Compound `CCCN1CCC(Oc2ccc(C#N)cc2)CC1` had a Ki on Histamine H3 receptor [2] of 107 nM.

Regarding `CC(C)CN1CCC(Oc2ccc(C#N)cc2)CC1`, the inhibitory constant (Ki) at Histamine H3 receptor [2] is 66.1 nM.
